Reference: patent publication US20240156861A1, “Cisplatin particles and uses thereof” (CRITITECH, INC., priority 2022, published 2024)
Values joined by “and” are separate entries in the source; they are usually repeats but may differ in a detail not shown here. Identical values can stand only once.

What was measured:
[1] = tested on: H69 human lung carcinoma xenograft; assay: Tumor-site tissue platinum concentrations and PK parameters by ICP-MS in H69 xenograft mice; format: in vivo, female athymic nude mice
Procedure: (§1) A total of 130 female athymic nude mice bearing the H69 human lung carcinoma xenograft were assigned to 10 treatment groups. Group 1 (N=5 females) served as the no treatment control. All intratumoral (IT) injections were delivered as single 25 μL injections. […] The maximum concentration of cisplatin solution and LSAM-Cisplatin suspension is 1 mg/mL and 10 mg/mL, respectively. The IT maximum feasible dose (MFD) for cisplatin solution is 25 μg and 250 μg for LSAM-Cisplatin suspension. Group 2 (N=10 females) was administered 47.5% ethanol/47.5% glycerin/5% water IT on Study Days 1 and 16 and served as control. Group 3 (N=20 females) received 133 μg cisplatin intraperitoneal (IP), considered the standard of care (SOC), once weekly for 3 cycles (Days 1, 8, and 15. Group 4 (N=5) was administered a single 125 μg large surface area microparticle (LSAM)-Cisplatin IT injection on Day 1. Group 5 (N=5 females) received a single 187.5 μg LSAM-Cisplatin IT injection on Day 1. Group 6 (N=5 females) was administered a single 250 μg LSAM-Cisplatin IT injection on Day 1. Group 7 (N=20 females) received single 25 μg cisplatin IT injections on Days 1 and 16. Group 8 (N=20 females) received single 125 μg LSAM-Cisplatin IT injections on Days 1 and 16. Group 9 (N=20 females) received single 187.5 μg LSAM-Cisplatin IT injections on Days 1 and 16. Group 10 (N=20 females) received single 250 μg LSAM-Cisplatin IT injections on Days 1 and 16. One hour postdose on Day 1, blood and tumor tissue were collected for determination of platinum concentrations from 3 Group 2 females and 5 females from Groups 3 and 7-10. On Days 8, 16 (predose) and 28, blood and tumor tissue were collected for determination of platinum concentrations from 5 females/Study Day from Groups 3 and 7-10. Total platinum concentrations in blood and tumor tissues were determined by inductively coupled plasma mass spectrometry (ICP-MS).
(§2) The LSAM-Cisplatin pharmacology study was conducted to: • Quantitate platinum content in whole blood and tumors to animals administered cisplatin IP (standard of care, SOC), the MFD of IT cisplatin, and IT LSAM- Cisplatin at the maximum feasible dose (MFD) and two lower doses • Evaluate tumor response • Evaluate increased doses of IT LSAM-Cisplatin up to 2X systemic maximum tolerated dose (MTD) • Evaluate one vs two injections • Evaluate recurrences if tumors regressed
(§3) Blood and tumor-site tissue were collected from each treatment group according to Table 4.
(§4) All blood and tumor-site tissue platinum concentrations that were reported as BLQ were considered as zero for statistical purposes. Mean and standard deviation are the only statistics reported for blood and tumor-site tissue platinum concentrations and platinum blood to tumor tissue ratios. Composite maximum observed concentration (Cmax), time of Cmax (Tmax), and area under the concentration-time curve (AUC) values for platinum in blood and tumor tissue following single and repeated administration of cisplatin or LSAM-Cisplatin are reported.

[2] = Blood platinum concentrations and PK parameters by ICP-MS in H69 xenograft mice; format: in vivo, female athymic nude mice
Procedure: as §1, §2, §3, §4

[3] = single dose Day 1, ~1.1 mg/kg IT
[4] = multiple doses, 6 mg/kg IP on Days 1, 8, and 15
[5] = multiple doses, ~1.1 mg/kg IT on Days 1 and 16

N.N.[Cl][Pt][Cl] [Cisplatin]
Tumor-Site Tissue Platinum AUC0-192 ([1]; single dose Day 1, 6 mg/kg IP): 70.5 µg·h/g | Tumor-Site Tissue Platinum Tmax ([1]; single dose Day 1, 6 mg/kg IP): 1 h | Tumor-Site Tissue Platinum AUC0-192 [1, 3]: 1,393 μg · hr/g | Tumor-Site Tissue Platinum AUC0-384 [1, 3]: 1,988 μg · hr/g | Tumor-Site Tissue Platinum Tmax [1, 3]: 1 h | mean Day 28 tumor-site tissue platinum concentrations, IT versus IP ([1]; ~1.1 mg/kg IT Days 1 and 16 versus 6 mg/kg IP Days 1, 8, 15): greater than following IP administration | Day 28 blood platinum concentrations, IP versus IT ([2]; 6 mg/kg IP (SOC) versus ~1.1 mg/kg IT Days 1 and 16): higher | Mean Blood Platinum Concentrations ([2]; Group 3: 6 mg/kg IP on Days 1, 8, 15, Day 1 (1 hour postdose)): 793 ng/mL | Individual Blood Platinum Concentrations ([2]; Group 3: 6 mg/kg IP on Days 1, 8, 15, Day 1 (1 hour postdose), 6 mg/kg): 977 ng/mL and 221 ng/mL and 891 ng/mL and 1040 ng/mL and 838 ng/mL | Mean Blood Platinum Concentrations ([2]; Group 3: 6 mg/kg IP on Days 1, 8, 15, Day 8 (pre-dose)): 368 ng/mL | Individual Blood Platinum Concentrations ([2]; Group 3: 6 mg/kg IP on Days 1, 8, 15, Day 8 (pre-dose), 6 mg/kg): 441 ng/mL and 304 ng/mL and 428 ng/mL and 241 ng/mL and 426 ng/mL | Mean Blood Platinum Concentrations ([2]; Group 3: 6 mg/kg IP on Days 1, 8, 15, Day 16): 1180 ng/mL | Individual Blood Platinum Concentrations ([2]; Group 3: 6 mg/kg IP on Days 1, 8, 15, Day 16, 6 mg/kg): 884 ng/mL and 1310 ng/mL and 1270 ng/mL and 1110 ng/mL and 1330 ng/mL | Mean Blood Platinum Concentrations ([2]; Group 3: 6 mg/kg IP on Days 1, 8, 15, Day 28): 396 ng/mL | Individual Blood Platinum Concentrations ([2]; Group 3: 6 mg/kg IP on Days 1, 8, 15, Day 28, 6 mg/kg): 493 ng/mL and 472 ng/mL and 363 ng/mL and 188 ng/mL and 465 ng/mL | Mean Blood Platinum Concentrations ([2]; Group 7: ~1.1 mg/kg IT on Days 1 and 16, Day 1 (1 hour postdose)): 189 ng/mL | Individual Blood Platinum Concentrations ([2]; Group 7: ~1.1 mg/kg IT on Days 1 and 16, Day 1 (1 hour postdose), 1.1 mg/kg): 160 ng/mL and 242 ng/mL and 181 ng/mL and 193 ng/mL and 171 ng/mL | Mean Blood Platinum Concentrations ([2]; Group 7: ~1.1 mg/kg IT on Days 1 and 16, Day 8): 57.6 ng/mL | Individual Blood Platinum Concentrations ([2]; Group 7: ~1.1 mg/kg IT on Days 1 and 16, Day 8, 1.1 mg/kg): 69.9 ng/mL and BLQ (below the limit of quantitation (<50 ng/mL) and treated as zero for statistical purposes) and 86.7 ng/mL and 79 ng/mL and 52.6 ng/mL | Mean Blood Platinum Concentrations ([2]; Group 7: ~1.1 mg/kg IT on Days 1 and 16, Day 16 (predose)): 11.4 ng/mL | Individual Blood Platinum Concentrations ([2]; Group 7: ~1.1 mg/kg IT on Days 1 and 16, Day 16 (predose), 1.1 mg/kg): BLQ (below the limit of quantitation (<50 ng/mL) and treated as zero for statistical purposes) (4×) and 56.8 ng/mL | Mean Blood Platinum Concentrations ([2]; Group 7: ~1.1 mg/kg IT on Days 1 and 16, Day 28): 61.1 ng/mL | Individual Blood Platinum Concentrations ([2]; Group 7: ~1.1 mg/kg IT on Days 1 and 16, Day 28, 1.1 mg/kg): 68.1 ng/mL and 68.3 ng/mL and 57.8 ng/mL and 57.4 ng/mL and 53.8 ng/mL | Blood Platinum AUC0-t [2, 4]: 486,824 ng · hr/mL | Blood Platinum Cmax [2, 4]: 1180 ng/mL | Blood Platinum Tmax [2, 4]: 384 h | Blood Platinum AUC0-t [2, 5]: 40,709 ng · hr/mL | Blood Platinum Cmax [2, 5]: 189 ng/mL | Blood Platinum Tmax [2, 5]: 1 h | Blood Platinum AUC0-192 ([2]; single dose Day 1, 6 mg/kg IP): 111,272 ng · hr/mL | Blood Platinum Cmax ([2]; single dose Day 1, 6 mg/kg IP): 793 ng/mL | Blood Platinum Tmax ([2]; single dose Day 1, 6 mg/kg IP): 1 h | Blood Platinum AUC0-192 [2, 3]: 23,645 ng · hr/mL | Blood Platinum AUC0-384 [2, 3]: 30,269 ng · hr/mL | Blood Platinum Cmax [2, 3]: 189 ng/mL | Blood Platinum Tmax [2, 3]: 1 h
